Key:
THP-1 [1] = test: Induction of apoptosis in TRAIL-resistant human THP1 cells assessed as pro-apoptotic cells at 50 uM after 24 hrs by annexin-V staining; assay type: functional
SW-620 = test: Induction of apoptosis in TRAIL-resistant human SW620 cells assessed as pro-apoptotic cells at 50 uM after 24 hrs by annexin-V staining; assay type: functional
THP-1 [2] = test: Induction of apoptosis in TRAIL-resistant human THP1 cells assessed as inhibition of caspase-8 activity; assay type: functional
THP-1 [3] = test: Induction of apoptosis in TRAIL-resistant human THP1 cells after 24 hrs by annexin-V staining; assay type: functional, cell-based; conditions: THP-1, 24 h

Compound CCCCC1(CCCC)O[C@H]2C=C(CO)[C@]3(O)[C@@H]4OC(C)(C)O[C@@]45CCC[C@@H]4[C@@H]1[C@@H]2[C@@]453 has an Activity (THP-1 [1]) of 15% and an Activity (SW-620) of 5%.

With CCCCCC1(CCCCC)O[C@H]2C=C(CO)[C@]3(O)[C@@H]4OC(C)(C)O[C@@]45CCC[C@@H]4[C@@H]1[C@@H]2[C@@]453 the Activity (THP-1 [1]) was 5% and the Activity (SW-620) was 5%.

With CC(C)CC1(CC(C)C)O[C@H]2C=C(CO)[C@]3(O)[C@@H]4OC(C)(C)O[C@@]45CCC[C@@H]4[C@@H]1[C@@H]2[C@@]453 the Activity (THP-1 [1]) was 83% and the Activity (SW-620) was 13%.

CC1(C)O[C@@H]2[C@]3(CCC[C@@H]4[C@H]5CO[C@H]6C=C(CO)[C@@]2(O)[C@]43[C@@H]56)O1 was tested, and the Activity (THP-1 [1]) was 94% and the Activity (SW-620) was 4%.

Compound CC1(C)O[C@H]2C3=C4[C@@H](CCCC[C@@]42O1)[C@H](C(C)(C)O)/C=C\C=C/3CO has an Activity (THP-1 [1]) of 2% and an Activity (SW-620) of 16%.

In the case of CC1(C)O[C@H]2C3=C4[C@@H](CCCC[C@@]42O1)[C@H](C1(O)CCCC1)/C=C\C=C/3CO, the Activity (THP-1 [1]) is reported as 2% and the Activity (SW-620) is reported as 22%.

In the case of CC1(C)O[C@H]2C3=C4[C@@H](CCCC[C@@]42O1)[C@H](C1(O)CCCCC1)/C=C\C=C/3CO, the Activity (THP-1 [1]) is reported as 2% and the Activity (SW-620) is reported as 17%.

In the case of CC(C)CC(O)(CC(C)C)[C@@H]1/C=C\C=C(\CO)C2=C3[C@H]1CCCC[C@@]31OC(C)(C)O[C@@H]21, the Activity (THP-1 [1]) is reported as 36%, the Activity (SW-620) is reported as 68% and the “inhibition (INH)” value (THP-1 [2]) is reported as 90%.

In the case of CCCCCC[C@@H]1/C=C\C=C(\CO)C2=C3[C@H]1CCCC[C@@]31OC(C)(C)O[C@@H]21, the Activity (THP-1 [1]) is reported as 20%, the Activity (SW-620) is reported as 70% and the “inhibition (INH)” value (THP-1 [2]) is reported as 90%.

CC1(C)O[C@H]2C3=C4[C@@H](CCCC[C@@]42O1)[C@H](CCc1ccccc1)/C=C\C=C/3CO was tested, and the Activity (THP-1 [1]) was 10% and the Activity (SW-620) was 23%.

In the case of CC1(C)O[C@H]2C3=C4[C@@H](CCC[C@@]42O1)[C@H](C(C)(C)O)/C=C\C=C/3CO, the Activity (THP-1 [1]) is reported as 2% and the Activity (SW-620) is reported as 12%.

CC1(C)O[C@@H]2C3=C(/C(CO)=C\C=C/[C@@H](C4(O)CCCC4)[C@@H]3c3ccccc3)[C@@H]2O1 gave an Activity (THP-1 [1]) of 3% and an Activity (SW-620) of 12%.

CC1(C)O[C@@H]2C3=C(/C(CO)=C\C=C/[C@@H](C4(O)CCCCC4)[C@@H]3c3ccccc3)[C@@H]2O1 showed an Activity (THP-1 [1]) of 3% and an Activity (SW-620) of 10%.

CCCCCC[C@@H]1/C=C\C=C(\CO)C2=C([C@H]3OC(C)(C)O[C@@H]23)[C@H]1c1ccccc1 showed an Activity (THP-1 [1]) of 97%, an Activity (SW-620) of 70% and an EC50 (THP-1 [3]) of 52.9 µM.

With CC1(C)O[C@@H]2[C@]3(CCC[C@@H]4[C@@H]5[C@H]6[C@H](C=C(CO)[C@@]2(O)[C@]643)OC5(C)C)O1 the Activity (THP-1 [1]) was 29% and the Activity (SW-620) was 4%.

In the case of CC1(C)O[C@@H]2C3=C(/C(CO)=C\C=C/[C@@H](C(C)(C)O)[C@@H]3c3ccccc3)[C@@H]2O1 (relative stereo), the Activity (THP-1 [1]) is reported as 2% and the Activity (SW-620) is reported as 15%.

CC(C)CC(O)(CC(C)C)[C@@H]1/C=C\C=C(\CO)C2=C([C@H]3OC(C)(C)O[C@@H]23)[C@H]1c1ccccc1 (relative stereo) gave an Activity (THP-1 [1]) of 97%, an Activity (SW-620) of 66% and an EC50 (THP-1 [3]) of 32.4 µM.

CC1(C)O[C@@H]2C3=C(/C(CO)=C\C=C/[C@@H](CCc4ccccc4)[C@@H]3c3ccccc3)[C@@H]2O1 (relative stereo) showed an Activity (THP-1 [1]) of 98%, an Activity (SW-620) of 58% and an EC50 (THP-1 [3]) of 49.3 µM.

With CC1=C(O)C(=O)C=C2C1=CC=C1[C@@]2(C)CC[C@@]2(C)[C@@H]3C[C@](C)(C(=O)O)CC[C@]3(C)CC[C@]12C [CELASTROL] the Activity (THP-1 [1]) was 99%, the Activity (SW-620) was 99% and the “inhibition (INH)” value (THP-1 [2]) was 90%. It also gave an EC50 (THP-1 [3]) of 15 µM.

— ChEMBL document CHEMBL1268895, “Synthesis of exotic polycycles such as cyclooctatrienes and fenestrenes with differential pro-apoptotic activities on human TRAIL-resistant metastatic cell lines” (Bioorg Med Chem Lett, 2010)
